Measured values published in PubChem BioAssay AID256 (DTP/NCI, 2004).
“And” between values parts separate entries of the source, which are not always exact repeats. Equal values may be shown once. Inconclusive results and toxic doses are left out. How the source made its calls: active means survival T/C of 150% or more; inactive means T/C below 125% in these data.

System: CD2F1 mice, L1210 leukemia ip, survival T/C
Test: NCI In Vivo Anticancer Drug Screen. Data for tumor model L1210 Leukemia (intraperitoneal) in CD2F1 (CDF1) mice
Conditions: higher = longer survival
How it was run: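 Vehicle-treated tumor-bearing mice served as controls (C) for compound-treated mice (T). Reported figure is T divided by C.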

[1] = endpoint: mean survival time, dose: 100.0 mg/kg/injection, schedule: Q01DX001 (ip), vehicle: saline with Tween-80
[2] = endpoint: mean survival time, dose: 200.0 mg/kg/injection, schedule: Q01DX001 (ip), vehicle: saline with Tween-80
[3] = endpoint: mean survival time, dose: 400.0 mg/kg/injection, schedule: Q01DX001 (ip), vehicle: saline with Tween-80
[4] = endpoint: mean survival time, dose: 50.0 mg/kg/injection, schedule: Q01DX009 (ip), vehicle: saline with Tween-80
[5] = endpoint: mean survival time, dose: 100.0 mg/kg/injection, schedule: Q01DX009 (ip), vehicle: saline with Tween-80
[6] = endpoint: mean survival time, dose: 200.0 mg/kg/injection, schedule: Q01DX009 (ip), vehicle: saline with Tween-80
[7] = endpoint: mean survival time, dose: 400.0 mg/kg/injection, schedule: Q01DX009 (ip), vehicle: saline with Tween-80
[8] = endpoint: mean survival time, dose: 100.0 mg/kg/injection, schedule: Q04DX003 (ip), vehicle: saline with Tween-80
[9] = endpoint: mean survival time, dose: 200.0 mg/kg/injection, schedule: Q04DX003 (ip), vehicle: saline with Tween-80
[10] = endpoint: mean survival time, dose: 400.0 mg/kg/injection, schedule: Q04DX003 (ip), vehicle: saline with Tween-80

Measured: T/C

Cc1ccc(S(=O)(=O)Nc2ccccc2OCCOCCOc2ccccc2NS(=O)(=O)c2ccc(C)cc2)cc1
inactive: [1] 103 % of control | [2] 91 % of control | [3] 95 % of control

c1ccc2c(c1)OB(C1CCCC1)O2
inactive: endpoint: mean survival time, dose: 100.0 mg/kg/injection, schedule: Q01DX009 (ip), vehicle: other 93 % of control | endpoint: mean survival time, dose: 200.0 mg/kg/injection, schedule: Q01DX009 (ip), vehicle: other 105 % of control | endpoint: mean survival time, dose: 400.0 mg/kg/injection, schedule: Q01DX009 (ip), vehicle: other 109 % of control

O=C(c1cccnc1)c1cn(C2OC(CO)C(O)C(O)C2O)c2ccccc12 (stereo not drawn)
inactive: endpoint: mean survival time, dose: 12.5 mg/kg/injection, schedule: Q01DX005 (ip), vehicle: other 93 % of control | endpoint: mean survival time, dose: 25.0 mg/kg/injection, schedule: Q01DX005 (ip), vehicle: other 97 % of control | endpoint: mean survival time, dose: 50.0 mg/kg/injection, schedule: Q01DX005 (ip), vehicle: other 104 % of control | endpoint: mean survival time, dose: 100.0 mg/kg/injection, schedule: Q01DX005 (ip), vehicle: other 97 % of control | endpoint: mean survival time, dose: 200.0 mg/kg/injection, schedule: Q01DX005 (ip), vehicle: other 95 % of control

Nc1ccccc1-c1ccccc1N
inactive: endpoint: mean survival time, dose: 100.0 mg/kg/injection, schedule: Q04DX002 (ip), vehicle: saline 87 % of control

CC12c3ccccc3C(c3ccccc31)C1C(=O)OC(=O)C12 (stereo not drawn)
inactive: [4] 95 % of control | [5] 103 % of control

C[Si](C)(C)Oc1c(Cl)cc(Cl)cc1Cl
inactive: [5] 100 % of control | [6] 91 % of control | [7] 87 % of control

O=C1CCCC[CH]1[Hg][Cl] (stereo not drawn)
inactive: endpoint: mean survival time, dose: 1.25 mg/kg/injection, schedule: Q01DX009 (ip), vehicle: saline 95 % of control | endpoint: mean survival time, dose: 2.5 mg/kg/injection, schedule: Q01DX009 (ip), vehicle: saline 107 % of control

CC1(C)CC(=O)C2=C(C1)OC1(O)CC(C)(C)CC(=O)C1C2c1ccccc1Cl (stereo not drawn)
inactive: [5] 93 % of control | [8] 92 % of control | [6] 93 % of control | [9] 94 % of control | [7] 95 % of control | [10] 96 % of control

Cc1nc(C(=O)O)c(C(=O)O)[nH]1
inactive: [5] 98 % of control | [8] 100 % of control | [6] 97 % of control | [9] 94 % of control

O=C(O)C(Cl)(c1ccccc1)C(Cl)c1ccccc1 (stereo not drawn)
inactive: [4] 94 % of control | [5] 100 % of control | [8] 101 % of control | [6] 98 % of control | [9] 101 % of control

O=S(=O)(Nc1cc(S(=O)(=O)c2ccccc2)c(O)c2ccccc12)c1ccccc1
inactive: [8] 96 % of control | [9] 86 % of control | [10] 91 % of control

N#Cc1cnn2ccn(C3OC(CO)C(O)C3O)c12 (stereo not drawn)
inactive: endpoint: median survival time, dose: 9.38 mg/kg/injection, schedule: Q01DX005 (ip), vehicle: water 97 % of control | endpoint: median survival time, dose: 18.75 mg/kg/injection, schedule: Q01DX005 (ip), vehicle: water 100 % of control | endpoint: median survival time, dose: 37.5 mg/kg/injection, schedule: Q01DX005 (ip), vehicle: water 98 % of control | endpoint: median survival time, dose: 75.0 mg/kg/injection, schedule: Q01DX005 (ip), vehicle: water 98 % of control | endpoint: median survival time, dose: 150.0 mg/kg/injection, schedule: Q01DX005 (ip), vehicle: water 97 % of control

CSc1ccc(C2=CCCCC2)cc1
inactive: endpoint: mean survival time, dose: 100.0 mg/kg/injection, schedule: Q04DX003 (ip), vehicle: saline 91 % of control | endpoint: mean survival time, dose: 200.0 mg/kg/injection, schedule: Q04DX003 (ip), vehicle: saline 91 % of control | endpoint: mean survival time, dose: 400.0 mg/kg/injection, schedule: Q04DX003 (ip), vehicle: saline 96 % of control

CCOC(=N)c1ccccc1
inactive: [1] 94 % of control | endpoint: mean survival time, dose: 100.0 mg/kg/injection, schedule: Q04DX003 (ip), vehicle: Klucel (hydroxypropylcellulose) (HPC) 103 % of control | [2] 97 % of control | endpoint: mean survival time, dose: 200.0 mg/kg/injection, schedule: Q04DX003 (ip), vehicle: Klucel (hydroxypropylcellulose) (HPC) 101 % of control | [3] 102 % of control | endpoint: mean survival time, dose: 400.0 mg/kg/injection, schedule: Q04DX003 (ip), vehicle: Klucel (hydroxypropylcellulose) (HPC) 105 % of control

O=CNc1ccc2c(c1)C(Br)c1ccccc1-2 (stereo not drawn)
inactive: [5] 93 % of control | [8] 97 % of control | [9] 100 % of control | [10] 88 % of control

O=C1C=C(N2CC2)C(=O)C(N2CC2)=C1N1CC1
active: endpoint: median survival time, dose: 100.0 micrograms/kg/injection, schedule: Q01DX009 (ip), vehicle: saline with Tween-80 156 % of control | endpoint: median survival time, dose: 200.0 micrograms/kg/injection, schedule: Q01DX009 (ip), vehicle: saline with Tween-80 164 % of control and 190 % of control
inactive: endpoint: median survival time, dose: 12.5 micrograms/kg/injection, schedule: Q01DX009 (ip), vehicle: saline 113 % of control | endpoint: median survival time, dose: 25.0 micrograms/kg/injection, schedule: Q01DX009 (ip), vehicle: saline with Tween-80 96 % of control | endpoint: median survival time, dose: 25.0 micrograms/kg/injection, schedule: Q01DX009 (ip), vehicle: saline 113 % of control | endpoint: median survival time, dose: 50.0 micrograms/kg/injection, schedule: Q01DX009 (ip), vehicle: saline with Tween-80 118 % of control and 108 % of control | endpoint: median survival time, dose: 400.0 micrograms/kg/injection, schedule: Q01DX009 (ip), vehicle: saline with Tween-80 87 % of control and 91 % of control

COC1=C(NC(C)=O)C(=O)c2nc(-c3nc(C(=O)O)c(C)c(-c4ccc(OC)c(OC)c4O)c3N)ccc2C1=O
inactive: endpoint: median survival time, dose: 6.25 mg/kg/injection, schedule: Q01DX009 (ip), vehicle: Klucel (hydroxypropylcellulose) (HPC) 106 % of control | endpoint: median survival time, dose: 12.5 mg/kg/injection, schedule: Q01DX009 (ip), vehicle: Klucel (hydroxypropylcellulose) (HPC) 108 % of control | endpoint: median survival time, dose: 25.0 mg/kg/injection, schedule: Q01DX009 (ip), vehicle: Klucel (hydroxypropylcellulose) (HPC) 104 % of control | endpoint: median survival time, dose: 50.0 mg/kg/injection, schedule: Q01DX009 (ip), vehicle: Klucel (hydroxypropylcellulose) (HPC) 107 % of control | endpoint: median survival time, dose: 100.0 mg/kg/injection, schedule: Q01DX009 (ip), vehicle: Klucel (hydroxypropylcellulose) (HPC) 109 % of control | endpoint: median survival time, dose: 200.0 mg/kg/injection, schedule: Q01DX009 (ip), vehicle: Klucel (hydroxypropylcellulose) (HPC) 109 % of control

OCCNC(=S)SCc1ccccc1
inactive: [8] 94 % of control | [9] 100 % of control | [10] 98 % of control

CC(C)(C)SC1C(O)C(CO)OC1n1ccc(N)nc1=O (stereo not drawn)
inactive: endpoint: median survival time, dose: 12.5 mg/kg/injection, schedule: Q01DX005 (ip), vehicle: saline 103 % of control | endpoint: median survival time, dose: 25.0 mg/kg/injection, schedule: Q01DX005 (ip), vehicle: saline 96 % of control | endpoint: median survival time, dose: 50.0 mg/kg/injection, schedule: Q01DX005 (ip), vehicle: saline 103 % of control | endpoint: median survival time, dose: 100.0 mg/kg/injection, schedule: Q01DX005 (ip), vehicle: saline 108 % of control | endpoint: median survival time, dose: 200.0 mg/kg/injection, schedule: Q01DX005 (ip), vehicle: saline 103 % of control

COC(=O)c1ccccc1Cn1c(C)cnc1C
inactive: endpoint: mean survival time, dose: 12.5 mg/kg/injection, schedule: Q01DX009 (ip), vehicle: saline 101 % of control | endpoint: mean survival time, dose: 25.0 mg/kg/injection, schedule: Q01DX009 (ip), vehicle: saline 93 % of control | endpoint: mean survival time, dose: 50.0 mg/kg/injection, schedule: Q01DX009 (ip), vehicle: saline 101 % of control and 105 % of control

Clc1ccc(C(=Cc2ccccc2)c2ccc(Cl)cc2)cc1
inactive: [5] 102 % of control | [8] 90 % of control | [6] 93 % of control | [9] 93 % of control | [7] 96 % of control | [10] 97 % of control

COc1cc(O)c(Cc2ccccc2O)c(O)c1C(=O)CCc1ccccc1
inactive: endpoint: mean survival time, dose: 1.25 mg/kg/injection, schedule: Q01DX009 (ip), vehicle: saline with Tween-80 105 % of control | endpoint: mean survival time, dose: 2.5 mg/kg/injection, schedule: Q01DX009 (ip), vehicle: saline with Tween-80 100 % of control | endpoint: mean survival time, dose: 5.0 mg/kg/injection, schedule: Q01DX009 (ip), vehicle: saline with Tween-80 97 % of control | endpoint: mean survival time, dose: 10.0 mg/kg/injection, schedule: Q01DX009 (ip), vehicle: saline with Tween-80 105 % of control | endpoint: mean survival time, dose: 20.0 mg/kg/injection, schedule: Q01DX009 (ip), vehicle: saline with Tween-80 100 % of control

Cc1cc(F)ccc1[As](=O)(O)O
inactive: endpoint: mean survival time, dose: 6.25 mg/kg/injection, schedule: Q04DX003 (ip), vehicle: saline with Tween-80 103 % of control | endpoint: mean survival time, dose: 12.5 mg/kg/injection, schedule: Q04DX003 (ip), vehicle: saline with Tween-80 95 % of control | endpoint: mean survival time, dose: 25.0 mg/kg/injection, schedule: Q04DX003 (ip), vehicle: saline with Tween-80 97 % of control
